Converted amounts (≈) assume the structure as drawn.
Tested on: up to 32 different microorganisms
Assay: in vitro antibacterial activity (MIC), agar dilution on Brain Heart Infusion (BHI) agar with Steers replicator
Assay type: cell-based
Settings: unit assumed
Description: Representative compounds of the present invention were assayed in vitro for antibacterial activity as follows: Twelve petri dishes containing successive aqueous dilutions of the test compound mixed with 10 mL of sterilized Brain Heart Infusion (BHI) agar (Difco 0148-01-5) were prepared. Each plate was inoculated with 1:100 (or 1:10 for slow-growing strains, such as Micrococcus and Streptococcus) dilutions of up to 32 different microorganisms, using a Steers replicator block. The inoculated plates were incubated at 35°-37° C. for 20 to 24 hours. In addition, a control plate, using BHI agar containing no test compound, was prepared and incubated at the beginning and end of each test.
An additional plate containing a compound having known susceptibility patterns for the organisms being tested and belonging to the same antibiotic class as the test compound was also prepared and incubated as a further control, as well as to provide test-to-test comparability. Erythromycin A was used for this purpose.
After incubation, each plate was visually inspected. The minimum inhibitory concentration (MIC) was defined as the lowest concentration of drug yielding no growth, a slight haze, or sparsely isolated colonies on the inoculum spot as compared to the growth control.

[1] = Candida albicans CCH 442 (code TT)
[2] = Enterococcus faecism ATCC 8043 (code II)
[3] = Escherichia coli DC-2 (code SS)
[4] = Escherichia coli JUHL (code QQ)
[5] = Micrococcus luteus ATCC 4698 (code PP)
[6] = Micrococcus luteus ATCC 9341 (code OO)
[7] = Mycobacterium smegmatis ATCC 114 (code UU)
[8] = Nocardia Asteroides ATCC9970 (code VV)
[9] = Staphylococcus aureus 1775 (code GG)
[10] = Staphylococcus aureus A5177 (code BB)
[11] = Staphylococcus aureus A-5278 (code CC)
[12] = Staphylococcus aureus ATCC 6538P (code AA)
[13] = Staphylococcus aureus CMX 553 (code FF)
[14] = Staphylococcus aureus CMX 642A (code DD)
[15] = Staphylococcus aureus NCTC10649M (code EE)
[16] = Staphylococcus epidermidis 3519 (code HH)
[17] = Streptococcus agalactiae CMX 508 (code KK)
[18] = Streptococcus bovis A-5169 (code JJ)
[19] = Streptococcus pyogenes 930 (code MM)
[20] = Streptococcus pyogenes PIU 2548 (code NN)

Question: For CCC1OC(=O)C(C)C(=O)C(C)C(OC2OC(C)CC(N(C)C)C2O)C(C)(OCC(O)c2ccccc2)CC(C)C(=O)C(C)C2NC(=O)OC12C (single isomer, unassigned) [Example 261A], which MIC (organism code AA) is on record?
Answer: 6.2 µg/mL (≈ 8.62 µM)

Question: What about the MIC (organism code BB) of the same compound?
Answer: 6.2 µg/mL (≈ 8.62 µM)

Question: What about the MIC (organism code CC) of the same compound?
Answer: > 100 µg/mL

Question: What about the MIC (organism code DD) of the same compound?
Answer: 12.5 µg/mL (≈ 17.4 µM)

Question: What about the MIC (organism code EE) of the same compound?
Answer: 12.5 µg/mL (≈ 17.4 µM)

Question: And the MIC (organism code FF)?
Answer: 12.5 µg/mL (≈ 17.4 µM)

Question: What about the MIC (organism code GG) of the same compound?
Answer: > 100 µg/mL

Question: What about the MIC (organism code HH) of the same compound?
Answer: 6.2 µg/mL (≈ 8.62 µM)

Question: What about the MIC (organism code II) of the same compound?
Answer: 1.56 µg/mL (≈ 2.17 µM)

Question: What about the MIC (organism code JJ) of the same compound?
Answer: 0.39 µg/mL (≈ 0.543 µM)

Question: And the MIC (organism code KK)?
Answer: 0.39 µg/mL (≈ 0.543 µM)

Question: And the MIC (organism code LL)?
Answer: 0.39 µg/mL (≈ 0.543 µM)

Question: What about the MIC (organism code MM) of the same compound?
Answer: > 100 µg/mL

Question: What about the MIC (organism code NN) of the same compound?
Answer: 1.56 µg/mL (≈ 2.17 µM)

Question: And the MIC (organism code OO)?
Answer: 0.78 µg/mL (≈ 1.09 µM)

Question: What about the MIC (organism code PP) of the same compound?
Answer: 3.1 µg/mL (≈ 4.31 µM)

Question: And the MIC (organism code QQ)?
Answer: > 100 µg/mL

Question: And the MIC (organism code RR)?
Answer: 6.2 µg/mL (≈ 8.62 µM)

Question: And the MIC (organism code SS)?
Answer: > 100 µg/mL

Question: What about the MIC (organism code TT) of the same compound?
Answer: > 100 µg/mL

Question: And the MIC (organism code UU)?
Answer: 25 µg/mL (≈ 34.8 µM)

Question: And the MIC (organism code VV)?
Answer: 6.2 µg/mL (≈ 8.62 µM)

Question: What about the MIC (organism code WW) of the same compound?
Answer: 64 µg/mL (≈ 89 µM)

Question: And the MIC (organism code XX)?
Answer: 1 µg/mL (≈ 1.39 µM)

Question: And the MIC (organism code YY)?
Answer: 1 µg/mL (≈ 1.39 µM)

Question: And the MIC (organism code ZZ)?
Answer: > 128 µg/mL

Question: What about the MIC (organism code ZZA) of the same compound?
Answer: 2 µg/mL (≈ 2.78 µM)

Question: Which MIC (organism code AA) does the source give for CCC1OC(=O)C(C)C(=O)C(C)C(OC2OC(C)CC(N(C)C)C2O)C(C)(OCC(O)c2ccccc2)CC(C)C(=O)C(C)C2NC(=O)OC12C (single isomer, unassigned) [Example 261B] here?
Answer: 3.1 µg/mL (≈ 4.31 µM)

Question: What about the MIC (organism code BB) of the same compound?
Answer: 3.1 µg/mL (≈ 4.31 µM)

Question: What about the MIC (organism code CC) of the same compound?
Answer: > 100 µg/mL

Question: And the MIC (organism code DD)?
Answer: 6.2 µg/mL (≈ 8.62 µM)

Question: What about the MIC (organism code EE) of the same compound?
Answer: 3.1 µg/mL (≈ 4.31 µM)

Question: What about the MIC (organism code FF) of the same compound?
Answer: 3.1 µg/mL (≈ 4.31 µM)

Question: And the MIC (organism code GG)?
Answer: > 100 µg/mL

Question: And the MIC (organism code HH)?
Answer: 6.2 µg/mL (≈ 8.62 µM)

Question: And the MIC (organism code II)?
Answer: 0.78 µg/mL (≈ 1.09 µM)

Question: What about the MIC (organism code JJ) of the same compound?
Answer: 0.39 µg/mL (≈ 0.543 µM)

Question: And the MIC (organism code KK)?
Answer: 0.39 µg/mL (≈ 0.543 µM)

Question: What about the MIC (organism code LL) of the same compound?
Answer: 0.39 µg/mL (≈ 0.543 µM)

Question: And the MIC (organism code MM)?
Answer: > 100 µg/mL

Question: What about the MIC (organism code NN) of the same compound?
Answer: 0.78 µg/mL (≈ 1.09 µM)

Question: What about the MIC (organism code OO) of the same compound?
Answer: 0.39 µg/mL (≈ 0.543 µM)

Question: What about the MIC (organism code PP) of the same compound?
Answer: 1.56 µg/mL (≈ 2.17 µM)

Question: And the MIC (organism code QQ)?
Answer: > 100 µg/mL

Question: And the MIC (organism code RR)?
Answer: 6.2 µg/mL (≈ 8.62 µM)

Question: And the MIC (organism code SS)?
Answer: > 100 µg/mL

Question: And the MIC (organism code TT)?
Answer: > 100 µg/mL

Question: What about the MIC (organism code UU) of the same compound?
Answer: 25 µg/mL (≈ 34.8 µM)

Question: And the MIC (organism code VV)?
Answer: 6.2 µg/mL (≈ 8.62 µM)

Question: And the MIC (organism code WW)?
Answer: 32 µg/mL (≈ 44.5 µM)

Question: What about the MIC (organism code XX) of the same compound?
Answer: 0.5 µg/mL (≈ 0.696 µM)

Question: What about the MIC (organism code YY) of the same compound?
Answer: 0.5 µg/mL (≈ 0.696 µM)

Question: What about the MIC (organism code ZZ) of the same compound?
Answer: > 128 µg/mL

Question: What about the MIC (organism code ZZA) of the same compound?
Answer: 1 µg/mL (≈ 1.39 µM)

Question: What does the source list for C=CCOC1(C)CC(C)C(=O)C(C)C(O)C(C)(O)C(CC)OC(=O)C(C)C(=O)C(C)C1OC1OC(C)CC(N(C)C)C1O (stereo not drawn) [Example 1, Compound of Formula (VIII): X is O, R is allyl]?
Answer: MIC [1]: > 100 µg/mL; MIC [2]: 12.5 µg/mL; MIC [3]: > 100 µg/mL; MIC [4]: > 100 µg/mL; MIC (Escherichia coli SS (code RR)): 12.5 µg/mL; MIC (Haemophilis influenzae DILL AMP R (code WW)): > 128 µg/mL; MIC [5]: 6.2 µg/mL; MIC [6]: 3.1 µg/mL; MIC [7]: > 100 µg/mL; MIC [8]: 6.3 µg/mL; MIC [9]: > 100 µg/mL; MIC [10]: 50 µg/mL; MIC [11]: > 100 µg/mL; MIC [12]: 12.5 µg/mL; MIC [13]: 25 µg/mL; MIC [14]: 50 µg/mL; MIC [15]: 6.2 µg/mL; MIC [16]: 50 µg/mL; MIC (Streptococcus Pneumonia 5649 (code ZZA)): 8 µg/mL; MIC (Streptococcus Pneumonia 5979 (code ZZ)): > 128 µg/mL; MIC (Streptococcus Pneumonia ATCC6303 (code XX)): 4 µg/mL; MIC (Streptococcus Pneumonia GYR 1171 (code YY)): 4 µg/mL; MIC [17]: 6.2 µg/mL; MIC [18]: 25 µg/mL; MIC [19]: > 100 µg/mL; MIC [20]: 12.5 µg/mL

Question: For C=CCOC1(C)CC(C)C(=NO)C(C)C(O)C(C)(O)C(CC)OC(=O)C(C)C(=O)C(C)C1OC1OC(C)CC(N(C)C)C1O (stereo not drawn) [Example 2, Compound of Formula (VIII): X is NOH, R is allyl], which MIC [1] is on record?
Answer: > 100 µg/mL

Question: And the MIC [2]?
Answer: 6.2 µg/mL

Question: What about the MIC [3] of the same compound?
Answer: > 100 µg/mL

Question: And the MIC [4]?
Answer: > 100 µg/mL

Question: And the MIC (Escherichia coli SS (code RR))?
Answer: 3.1 µg/mL

Question: And the MIC [5]?
Answer: 3.1 µg/mL

Question: What about the MIC [6] of the same compound?
Answer: 1.56 µg/mL

Question: And the MIC [7]?
Answer: 25 µg/mL

Question: And the MIC [8]?
Answer: 0.2 µg/mL

Question: And the MIC [9]?
Answer: > 100 µg/mL

Question: And the MIC [10]?
Answer: 3.1 µg/mL

Question: And the MIC [11]?
Answer: > 100 µg/mL

Question: And the MIC [12]?
Answer: 3.1 µg/mL

Question: What about the MIC [13] of the same compound?
Answer: 3.1 µg/mL

Question: What about the MIC [14] of the same compound?
Answer: 3.1 µg/mL

Question: And the MIC [15]?
Answer: 1.56 µg/mL

Question: What about the MIC [16] of the same compound?
Answer: 6.2 µg/mL

Question: And the MIC [17]?
Answer: 1.56 µg/mL

Question: What about the MIC [18] of the same compound?
Answer: 3.1 µg/mL

Question: And the MIC [19]?
Answer: > 100 µg/mL

Question: And the MIC (Streptococcus pyogenes EES61 (code LL))?
Answer: 3.1 µg/mL

Question: And the MIC [20]?
Answer: 3.1 µg/mL
